Test results published in publication PMC8466238, “Development of High Affinity Calcitonin Analog Fragments Targeting Extracellular Domains of Calcitonin Family Receptors” (Biomolecules, 2021).
Like-named read-outs stand apart in the source and are kept apart here. Where a SMILES comes first, the peptide text is derived from it. Where no end group is shown, it is not given here. [ ]: non-standard residue; d: D form. The star is where a group is joined. FITC = O=C1OC2(c3ccc(O)cc3Oc3cc(O)ccc32)c2ccc(NC(=S)*)cc21; Hyp = O=C(O)[C@@H]1C[C@@H](O)CN1; Ahx = NCCCCCC(=O)O

T1: CTR ECD (Homo sapiens, UniProt P30988)
T1 construct: pHLsec/hCTR.34–141-H6 (H-pSL003); H6 (His6) (C); made in house; host or cells: HEK293T
T1 sequence (P30988 34-141): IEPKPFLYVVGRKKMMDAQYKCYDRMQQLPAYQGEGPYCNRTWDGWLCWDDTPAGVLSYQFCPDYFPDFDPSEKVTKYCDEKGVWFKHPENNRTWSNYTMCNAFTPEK

T2: AMY receptor 3 ECD (RAMP3-CTR ECD fusion protein) (Homo sapiens, UniProt O60896+P30988)
T2 construct: pHLsec/hRAMP3.25–112-(GSA)3-hCTR.34–141-H6 (H-pSL001); H6 (His6) (C); made in house; host or cells: HEK293S GnTI−
T2 sequence (O60896+P30988 with tags, fused parts or gaps): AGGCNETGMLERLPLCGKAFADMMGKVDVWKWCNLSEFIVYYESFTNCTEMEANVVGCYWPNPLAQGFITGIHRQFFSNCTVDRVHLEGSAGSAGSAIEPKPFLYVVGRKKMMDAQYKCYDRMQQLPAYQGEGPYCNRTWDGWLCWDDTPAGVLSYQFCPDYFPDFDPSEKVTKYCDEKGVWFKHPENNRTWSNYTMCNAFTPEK

T3: FITC-labeled AC413(6–25) with Y25P mutation (Y25P (stands in the printed letters), FITC-(Ahx) (aminohexanoic acid) on the N-terminus; C-terminal amide)
T3 construct: residues 6-25 of AC413, an antagonistic amylin peptide analog, with Y25P; peptide probe of the FP assay with the AMY receptor ECDs; also called FITC-AC413(6–25) Y25P; source: synthetic peptide (Genscript, HPLC-purified)
T3 peptide: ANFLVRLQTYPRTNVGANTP

B1: RAMP1-CTR ECD fusion protein (hRAMP1.24–111-(GSA)3-hCTR.34–141-H6) (receptor, human)
chain: TTACQEANYGALLRELCLTQFQVDMEAVGETLWCDWGRTIRSYRELADCTWHMAEKLGCFWPNAEVDRFFLAVHGRYFRSCPISGRAVGSAGSAGSAIEPKPFLYVVGRKKMMDAQYKCYDRMQQLPAYQGEGPYCNRTWDGWLCWDDTPAGVLSYQFCPDYFPDFDPSEKVTKYCDEKGVWFKHPENNRTWSNYTMCNAFTPEK
notes: human receptor activity-modifying protein 1 (RAMP1), extracellular domain, residues 24-111; linker, printed as (GSA)3; human calcitonin receptor (CTR), extracellular domain, residues 34-141; Secreted from a pHLsec-based vector; also called AMY receptor 1 ECD; RAMP1 ECD-CTR ECD fusion; source: HEK293T, transiently transfected, secreted to cell culture media, purified (IMAC, SEC)
B2: RAMP2-CTR ECD fusion protein (hRAMP2.55–140-(GSA)3-hCTR.34–141-H6) (receptor, human)
chain: GGTVKNYETAVQFCWNHYKDQMDPIEKDWCDWAMISRPYSTLRDCLEHFAELFDLGFPNPLAERIIFETHQIHFANCSLVQPTFSDGSAGSAGSAIEPKPFLYVVGRKKMMDAQYKCYDRMQQLPAYQGEGPYCNRTWDGWLCWDDTPAGVLSYQFCPDYFPDFDPSEKVTKYCDEKGVWFKHPENNRTWSNYTMCNAFTPEK
notes: human receptor activity-modifying protein 2 (RAMP2), extracellular domain, residues 55-140; linker, printed as (GSA)3; human calcitonin receptor (CTR), extracellular domain, residues 34-141; Secreted from a pHLsec-based vector; also called AMY receptor 2 ECD; RAMP2 ECD-CTR ECD fusion; source: HEK293T, transiently transfected, secreted to cell culture media, purified (IMAC, SEC)
B3: RAMP3-CTR ECD fusion protein (hRAMP3.25–112-(GSA)3-hCTR.34–141-H6) (receptor, human)
chain: T2 sequence (O60896+P30988 with tags, fused parts or gaps)
notes: human receptor activity-modifying protein 3 (RAMP3), extracellular domain, residues 25-112; linker, printed as (GSA)3; human calcitonin receptor (CTR), extracellular domain, residues 34-141; Secreted from a pHLsec-based vector; also called AMY receptor 3 ECD; RAMP3 ECD-CTR ECD fusion protein; source: HEK293S GnTI-, transiently transfected (PEI), secreted to cell culture media, purified (IMAC, SEC)

Experiments:
[1] = tested on: RAMP3-CTR ECD fusion protein; assay: FP peptide binding assay of FITC-labeled probes with CTR ECD alone and RAMP3-CTR ECD fusion protein (Figure S1D); set-up: species or system human; conditions: FP binding with rising receptor ECD concentration
Protocol: HEK293S GnTI^− cells were used to express the RAMP3-CTR ECD fusion protein. The general procedures of receptor ECD expression and purification from HEK293S GnTI^− cells were previously described. HEK293S GnTI^− cells were transiently transfected with the DNA expression vector (H-pSL001) using polyethylenimine (PEI) at 1:1.5 ratio (DNA:PEI, w/w). Transfected cells were incubated for 4 days at 37 °C. All protein purification was performed at 4 °C unless otherwise noted. Cell culture media were collected and dialyzed to dialysis buffer overnight. The next day, dialyzed cell culture media were loaded to IMAC chromatography. Peak fractions from IMAC chromatography were spin-concentrated (MWCO 10 kDa) and injected into SEC. […]
The overall procedures of FP peptide binding assay with receptor ECDs and FITC-labeled peptide probes were previously described. […] A SpectraiD5 (Molecular Devices, San Jose, CA, USA) was used to measure fluorescence polarization/anisotropy. […] For the saturation binding assay, the anisotropy values were re-calculated when total fluorescence intensity was changed by more than 10% as previously described. However, effects of fluorescence intensity changes on the affinity values (KI) obtained from the competition binding assay was reported to be minimum and re-calculation of anisotropy was not applied. […] Mean and standard deviation of peptide ligand affinity were calculated from them. […]

CTR ECD = target: T1, CTR ECD; assay: FP competition peptide binding assay with purified CTR ECD, FITC-sCT(22–32) probe; conditions: CTR ECD 500 nM, FITC-sCT(22–32) 10 nM
From the text: (§1) The overall procedures of FP peptide binding assay with receptor ECDs and FITC-labeled peptide probes were previously described. […] A SpectraiD5 (Molecular Devices, San Jose, CA, USA) was used to measure fluorescence polarization/anisotropy. Background (reaction buffer only) was subtracted for anisotropy calculation. For the SpectraiD5, G factor (0.38 for FITC-sCT(22–32) and 0.41 for FITC-AC413(6–25) and FITC-AC413(6–25) Y25P) was used to correct the instrumental bias for anisotropy calculation. The polarization (mP) of the FITC-peptide probes only (No receptor ECD) was set close to 50 mP. For the saturation binding assay, the anisotropy values were re-calculated when total fluorescence intensity was changed by more than 10% as previously described. […] Anisotropy values were used to produce non-linear regression curves with PRISM 5.0 (GraphPad software, San Diego, CA, USA) as previously described. KI indicates affinity values obtained from competition binding assay and it was calculated from the non-linear regression curves of anisotropy by using equations previously described. Concentrations of the FITC-labeled peptide and the total receptor protein and the affinity of the FITC-labeled peptide for the receptor protein were incorporated into the equations for the KI calculation of the competitive peptide ligand. Two technical replicates were used for each receptor concentration in the peptide-binding curve. SEM of the anisotropy values of the two replicates at each receptor concentration were presented as error bars in the representative peptide-binding curves. When the error bars were shorter than the height of the symbol, they were omitted in the representative curves. At least three independent peptide binding experiments were performed to obtain three independent peptide-binding curves. Mean and standard deviation of peptide ligand affinity were calculated from them.

[2] = target: T4, AMY receptor 1 ECD (RAMP1-CTR ECD fusion protein) (Homo sapiens, UniProt O60894+P30988); assay: FP competition peptide binding assay with AMY receptor 1 ECD, FITC-AC413(6–25) Y25P probe; conditions: Figure 5e; RAMP1-CTR ECD fusion protein 77 nM, FITC-AC413(6–25) Y25P 10 nM; mean ± SD of N = 3; read-out: pKI Mean ± SD (converted)
T4 construct: pHLsec/hRAMP1.24–111-(GSA)3-hCTR.34–141-H6 (H-pSL005); H6 (His6) (C); made in house; host or cells: HEK293T
From the text: as §1

[3] = target: T5, AMY receptor 2 ECD (RAMP2-CTR ECD fusion protein) (Homo sapiens, UniProt O60895+P30988); assay: FP competition peptide binding assay with AMY receptor 2 ECD, FITC-AC413(6–25) Y25P probe; conditions: Figure 5f; RAMP2-CTR ECD fusion protein 67 nM, FITC-AC413(6–25) Y25P 10 nM; mean ± SD of N = 3; read-out: pKI Mean ± SD (converted)
T5 construct: pHLsec/hRAMP2.55–140-(GSA)3-hCTR.34–141-H6 (H-pSL006); H6 (His6) (C); made in house; host or cells: HEK293T
From the text: as §1

[4] = target: T2, AMY receptor 3 ECD (RAMP3-CTR ECD fusion protein); assay: FP competition peptide binding assay with AMY receptor 3 ECD, FITC-AC413(6–25) Y25P probe; conditions: Figure 5g; RAMP3-CTR ECD fusion protein 252 nM, FITC-AC413(6–25) Y25P 10 nM; mean ± SD of N = 3; read-out: pKI Mean ± SD (converted)
From the text: as §1

[5] = target: T3, FITC-labeled AC413(6–25) with Y25P …; assay: fluorescence polarisation; saturation binding: FITC-labeled peptide probe (10 nM) with rising receptor ECD concentrations; receptor ECD concentration at half of the maximal anisotropy; conditions: both partners purified
[6] = Figure 4b experiment set, mean ± SD of N = 3 (N = 4 for sCT(22–32)) independent experiments, read-out: pKI Mean ± SD (converted)

Molecule | Ki (CTR ECD; [6]) | Ki [2] | Ki [3] | Ki [4] | receptor ECD concentration that produced a half of the maximal anisotropy with the peptide probe [5] | further results
{FITC-Ahx}-ANFLVRLQTYPRTNVGANTP-NH2 [FITC-AC413(6–25) Y25P, FITC-labeled AC413(6–25) with Y25P mutation, probe for AMY receptor ECDs] |  |  |  |  |  | affinity for the RAMP3-CTR ECD fusion protein compared to FITC-labeled AC413(6–25) [1]: great affinity increase
C[C@@H](O)[C@H](NC(=O)[C@H](CC(N)=O)NC(=O)[C@@H](NC(=O)[C@H](CCCNC(=N)N)NC(=O)[C@@H]1CCCN1C(=O)[C@@H](N)Cc1ccc(O)cc1)[C@@H](C)O)C(=O)NCC(=O)N[C@@H](CO)C(=O)NCC(=O)N[C@H](C(=O)N1C[C@H](O)C[C@H]1C(N)=O)[C@@H](C)O [sCT(22–32) P32HYP] (H-YPRTNTGSGT[Hyp]-NH2) | 8.91e-07 M | 0.891 µM | 1.41 µM | 1 µM |  | 
YPRTNTGSGTP-NH2 [sCT(22–32), reference compound] | 2.04e-06 M | 2.57 µM | 2.82 µM | 2.57 µM |  | Ki (CTR ECD; Figure 1d experiment set, mean ± SD of N = 3 independent experiments, pKI = –log10[KI] (M)): 1.78e-06 M
{FITC-Ahx}-ANFLVRLQTYPRTNVGANTY-NH2 [FITC-AC413(6–25), FITC-labeled fragment of the antagonistic amylin analog AC413, peptide probe] |  |  |  |  |  | binding for the RAMP3-CTR ECD fusion protein over CTR ECD alone [1]: selective binding
C[C@@H](O)[C@H](NC(=O)[C@H](CC(=O)O)NC(=O)[C@@H](NC(=O)[C@H](CCCNC(=N)N)NC(=O)[C@@H]1CCCN1C(=O)[C@@H](N)Cc1ccc(O)cc1)[C@@H](C)O)C(=O)NCC(=O)N1CCC[C@H]1C(=O)NCC(=O)N[C@H](C(=O)N1C[C@H](O)C[C@H]1C(N)=O)[C@@H](C)O [sCT(22–32) N26D/S29P/P32HYP] (H-YPRTDTGPGT[Hyp]-NH2) | 9.55e-08 M | 0.123 µM | 0.339 µM | 0.117 µM |  | 
B1 |  |  |  |  | 77 nM | 
B2 |  |  |  |  | 67 nM | 
B3 |  |  |  |  | 252 nM | 
